Assay results: patent US8093288B2, “Genipin derivatives and uses thereof” (Beth Israel Deaconess Medical Center, priority 2003, dated 2012)

Columns and labels:
Format in all cases: cell-based
[1] = tested on: isolated thymocytes; assay: Proton leak in isolated thymocytes
Source text: (§1) It has been shown that addition of high levels of superoxide to isolated mitochondrial stimulates proton leak if UCP1, UCP2 or UCP3 (collectively “UCPs”) are present.

[2] = tested on: thymocytes that are deficient in UCP2; assay: Proton leak in thymocytes deficient in UCP2
Source text: as §1

[3] = tested on: UCP2 deficient islets; assay: ATP levels and insulin secretion in UCP2 deficient islets
Source text: as §1

[4] = tested on: isolated islets; assay: ATP levels and insulin secretion in isolated islets
Source text: as §1

[5] = tested on: pancreatic islets from wildtype mice; assay: Insulin secretion in isolated pancreatic islets from wildtype mice; details: 5.5 mM glucose; 5 μM D1; 37° C. for 60 min; WT islets; FIG. 11C
Procedure: As used or herein, pancreatic islets from wildtype and UCP2 knockout mice were isolated according to a method used for rats (Cawthorn and Chan, Mol. Cell. Endocrinol. 1991, 75:197-204, the entire teachings of which are incorporated herein by reference), except that the total exposure to type XI collagenase (Worthington Biochemical Co., NJ) was 30 min. and the Ficoll gradient was altered to layers of 25%, 23%, 21%, and 11%. Islets were harvested from the 11%-21% interface.
Islets were cultured in RPMI medium containing 11.0 mM glucose and supplemented with 1% penicillin-streptomycin. 7.5% fetal bovine serum (all from Gibco/BRL, Burlington, ON), and 10 mM Hepes (Sigma). After culturing for 20-24 hr, the islets were transferred to microcentrifuge tubes, pelleted (800 g for 5 min), and the medium aspirated and replaced with 1.0 mL DME medium containing 1% gelatin and 5.5 mM glucose with no genipin (control), 50 nM genipin, 0.5 μM genipin, and 5 μM genipin. For insulin secretion studies, the three islets were incubated per tube. After incubation at 37° C. for 60 min., the islets were centrifuged. The supernatant was collected and stored at −80° C., and then later assayed for insulin using Rat Insulin ELISA Kit (Cat. No. INSKR020, Crystal Chem., Inc., Chicago, Ill.).
FIGS. 11B and 11C show their effects on insulin secretion. Pancreatic islets were isolated from WT or UCP2 knockout (KO) mice. […]

Structure (SMILES)	proton leak [1]	proton leak [2]	ATP levels and insulin secretion [3]	ATP levels [4]	insulin secretion [4]	insulin secretion [5]
O=C(O)c1ccc(/C2=C3\C=CC(=N3)/C(c3ccc(C(=O)O)cc3)=c3/cc/c4[n]3[Mn]([Cl])[n]3c2ccc3/C(c2ccc(C(=O)O)cc2)=C2/C=CC(=N2)\C=4c2ccc(C(=O)O)cc2)cc1 [MnTBAP]	decreases proton leak	not present	absent	increased ATP levels	increased insulin secretion	
COC(=O)C1=CO[C@@H]2OC[C@@]3(O)[C@@H]2[C@@H]1C[C@H]3Cl [compound 55]						increases insulin secretion in WT islets
